The subject of the experiment is lymphoma cell line U937. In words: In vitro survival assay (MTT) for anti-lymphoma effects. The conditions noted are these: Homo sapiens, U-937, U937 cells, 48 hours treatment, read-out: IC50 (half inhibition concentration), survival of lymphoma cells. In kind it is cell-based. As for the experimental part: Inhibiting effects of lymphoma cells by cyclohexenone compounds of Antrodia camphorata from example 1 were assessed according to the anticancer-drug screening model of National Cancer Institute (NCI). The compound 4-hydroxy-2,3-dimethoxy-6-methyl-5-(3,7,11-trimethyl-dodeca-2,6,10-trienyl)-cyclohex-2-enone from example 1 was added into the culture media of lymphoma cell line U937 to determine the survival rates. Survival of cell was analyzed using MTT assay. U937 cell line was a human histiocytic lymphoma cell line.
MTT assay is commonly used to analyze cell proliferation, survival rate of viable cells and cytotoxicity. MTT (3[4,5-dimethylthiazol-2-yl]-2,5-diphenyltetrazolium bromide) is a yellow dye which can be converted to water-insoluble purple formazan on the reductive cleavage of its tetrazolium ring by the succinate tetrazolium reductase in mitochondria of cells. The amount of formazan produced is used to detect the number of viable cells and calculate the survival rates.
The U937 cells were cultivated in RPMI 1640 medium supplemented with 10% fetal bovine serum, 10 U/ml of Penicillin and 100 μg/ml of Streptomycin at 37° C., 5% CO2 for 24 hours. […] The absorbances were measured at 570 nm with an ELISA Reader to determine the survival rates.

The values that follow come from US20130005825A1, “Inhibition of the Survival of Lymphoma by Cyclohexenone Compounds from Antrodia Camphorata” (Golden Biotechnology Corporation, priority 2009, published 2013).

For `COC1=C(OC)C(O)C(C/C=C(\C)CC/C=C(\C)CCC=C(C)C)C(C)C1=O` (stereo not shown) [formula 2, 4-hydroxy-2,3-dimethoxy-6-methyl-5-(3,7,11-trimethyl-dodeca-2,6,10-trienyl)-cyclohex-2-enone], the IC50 amounted to 9.71 µg/mL.
